Patent US20130197043A1, “USE OF THE FETAL REPROGRAMMING OF A PPAR AGONIST” (SNU R&DB FOUNDATION, priority 2010, published 2013)
pEC50: −log10 of the molar value.

Legend:
[1] = test system: mice subjected to fetal reprogramming; assay: Treadmill endurance test of mice subjected to fetal reprogramming; assay type: in vivo; details: for running distance / running distance increase versus control / running time / running time increase versus control: maternal 10 mg/kg, gestation and lactation; for Increase Rate (Administration Group/Control Group), Distance / Increase Rate (Administration Group/Control Group), Time: 10 mg/kg/day; for muscle colour after skin removal versus control: fetal reprogramming, 10 mg/kg/day oral
Procedure: Before the experiment, mice were exercised for 5 minutes at a speed of 7 meters/min for two days so as to be adapted to exercising equipment. On day 3, the main experiment was conducted. As for the method for experiment, the mice were made to run at a speed of 10 meter/min for 60 minutes, and after that, the speed was increased at 1 meter/min once every 15 minutes until the maximum speed reaches 15 meters/min. As for the male mice, the running time was increased by 2.9 fold ([…], P<0.0001, n=6) and the running distance was increased by 3.0 fold (9927±1168 versus 3303±394 m, P<0.0001) in the PPAR δ agonist (CMDD1111)-administered mouse group than the control mouse group.
The Experiment using pregnant C57BL/6 mice was conducted in order to verify an endurance enhancement effect by fetal reprogramming of CMDD1226. […]
The experiment for verifying the fetal reprogramming effect of GW501516 and determining the optimum administration period thereof was conducted. The experiment method was shown in FIG. 1, and the experiment was conducted with respect to three kinds of administration periods (gestation period, lactation period, and both of gestation and lactation periods). As the experiment result, the group administered with PPAR δ agonist only during the gestation period had 2.6-fold and 3.2-fold increases in the running time and the running distance, respectively, and the group administered with PPAR δ agonist only during the lactation period had 2.4-fold and 3.0-fold increases in the running time and the running distance, respectively, as compared with the control group. The group administered with PPAR δ agonist during both the gestation and lactation periods had the most obvious increase in endurance, and had 5.1-fold and 6.6-fold increases as compared with the control group (FIG. 22).
The animal test was conducted in order to verify the muscle endurance enhancement and muscular function improvement effects of the material according to the present invention. […] […] The test using a treadmill was conducted in order to confirm the effect of this muscular fiber change on muscle endurance enhancement and muscular function improvement.

[2] = test system: mice subjected to fetal reprogramming; assay: Morris water maze test of fetal-reprogrammed mice; assay type: in vivo; details: for Morris water maze test: average time required to find the platform: 8-week old, maternal 10 mg/kg/day gestation and lactation; for Morris water maze test time: mother 10 mg/kg/day oral during the fetal reprogramming period
Procedure: An animal experiment was conducted in order to verify a memory improvement effect of the mice subjected to fetal reprogramming by PPAR δ agonist. Pregnant mice were orally administered with PPAR δ agonist, CMDD1111, at a concentration of 10 mg/kg/day during the gestation and lactation periods in order to verify effects of the invented material at the brain formation stage. When the fetus became an 8-week old adult, the Morris water maze test was conducted to compare memory between the control group and the administration group. This test can check special learning and memory, and is a task that is mainly dependent on the hippocampus in the brain. As the experiment result, the average times required to find the flatform were 26 seconds and 22 seconds (male and female, respectively) for the control group and were 9 seconds and […] (male and female, respectively) for the administration group. Therefore, it was verified that the PPAR δ agonist improved memory during the fetal programming period, and this effect was maintained until the adulthood.
The animal test was conducted in order to verify the memory improvement effect of the material according to the present invention. Compounds 5 and 9, which are the developed materials, were orally administered to the mother at a concentration of 10 mg/kg/day during the fetal reprogramming period. The Morris water maze test was used to confirm the difference in brain function between the control group and the administered group.

[3] = biological target: T1, hPPAR δ (Homo sapiens, UniProt Q03181); assay: Transfection assay in CV-1 cells, hPPAR δ; assay type: cell-based; details: luciferase reporter
T1 construct: expressed in transfected cells; host or cells: CV-1 cells
T1 sequence (Q03181 1-441): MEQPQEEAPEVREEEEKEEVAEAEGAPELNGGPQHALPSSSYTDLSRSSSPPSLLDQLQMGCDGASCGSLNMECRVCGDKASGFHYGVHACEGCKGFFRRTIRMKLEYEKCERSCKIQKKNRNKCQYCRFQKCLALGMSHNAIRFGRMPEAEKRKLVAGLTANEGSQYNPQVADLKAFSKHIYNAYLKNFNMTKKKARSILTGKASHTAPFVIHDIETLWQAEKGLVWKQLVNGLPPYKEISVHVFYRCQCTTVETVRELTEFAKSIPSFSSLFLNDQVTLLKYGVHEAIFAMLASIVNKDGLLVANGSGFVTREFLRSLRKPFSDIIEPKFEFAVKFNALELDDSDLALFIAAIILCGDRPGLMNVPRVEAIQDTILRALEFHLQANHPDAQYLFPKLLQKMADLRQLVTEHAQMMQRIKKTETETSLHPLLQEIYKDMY
Procedure: (§1) This assay was conducted by using CV-1 cells. The cells were cultured on a 96-well plate with a DMEM medium containing 10% FBS, DBS (delipidated), and 1% penicillin/streptomycin in 37° C. of an incubator 5% of carbon dioxide. Test was conducted in four stages of cell inoculation, transfection, treatment with the developed material, and result confirmation. The CV-1 cells were inoculated on the 96-well plate at a cell density at 5,000 cells/well, and after 24 hours, transfection was performed. PPARs plasmid DNA, reporter DNA, and β-galactosidase DNA were mixed with a transfection reagent, and then used to treat the cells. The developed material was dissolved in dimethylsulfoxide (DMSO), and then was used to treat the cells by using media at various concentrations. After 24 hours of culturing in an incubator, the cells were lysed with a lysis buffer and luciferase activity and β-galactosidase activity were measured using a luminometer and a microplate reader. The measured luciferase value was calibrated with the β-galactosidase value, and this value was depicted on a graph and EC50 was determined.

[4] = biological target: T2, hPPARg (Homo sapiens, UniProt P37231); assay: Transfection assay in CV-1 cells, hPPARg; assay type: cell-based; details: luciferase reporter
T2 construct: expressed in transfected cells; host or cells: CV-1 cells
T2 sequence (P37231 1-505): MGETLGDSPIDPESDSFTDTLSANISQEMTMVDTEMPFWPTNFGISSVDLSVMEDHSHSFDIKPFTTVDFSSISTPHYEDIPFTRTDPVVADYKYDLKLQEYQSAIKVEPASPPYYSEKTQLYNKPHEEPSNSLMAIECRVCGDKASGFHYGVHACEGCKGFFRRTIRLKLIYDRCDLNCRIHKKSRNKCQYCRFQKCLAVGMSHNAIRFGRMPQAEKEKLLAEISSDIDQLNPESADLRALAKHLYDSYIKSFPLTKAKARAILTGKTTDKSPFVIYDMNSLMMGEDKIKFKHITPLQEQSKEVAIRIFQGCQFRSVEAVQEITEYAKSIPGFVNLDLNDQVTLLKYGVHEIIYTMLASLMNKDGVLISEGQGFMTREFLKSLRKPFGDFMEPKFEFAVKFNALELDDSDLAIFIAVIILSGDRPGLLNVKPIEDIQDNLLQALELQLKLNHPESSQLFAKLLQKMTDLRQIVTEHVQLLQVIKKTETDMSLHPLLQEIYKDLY
Procedure: as §1

Structure (SMILES)	running distance ([1]; female mice) [m]	running distance increase versus control ([1]; female mice) [fold]	running time ([1]; female mice) [min]	running time increase versus control ([1]; female mice) [fold]	running distance ([1]; male mice) [m]	running distance increase versus control ([1]; male mice) [fold]	running time ([1]; male mice) [min]	running time increase versus control ([1]; male mice) [fold]	Morris water maze test: average time required to find the platform ([2]; female) [s]	Morris water maze test: average time required to find the platform ([2]; male) [s]	Increase Rate (Administration Group/Control Group), Distance ([1]; Gestation + Lactation Periods) [fold]	Increase Rate (Administration Group/Control Group), Time ([1]; Gestation + Lactation Periods) [fold]	Increase Rate (Administration Group/Control Group), Distance ([1]; Gestation Period) [fold]	Increase Rate (Administration Group/Control Group), Time ([1]; Gestation Period) [fold]	Increase Rate (Administration Group/Control Group), Distance ([1]; Lactation Period) [fold]	Increase Rate (Administration Group/Control Group), Time ([1]; Lactation Period) [fold]	muscle colour after skin removal versus control [1]	Morris water maze test time [2] [s]	pEC50 [3]	EC50 hPPARg [4]
Cc1cc(SC(Cc2ccccc2)c2sc(-c3ccc(C(F)(F)F)cc3)nc2C)ccc1OCC(=O)O (stereo not drawn) [CMDD1111]	11194±261	2.1	761 ± 17	2.0	9927±1168	3.0	677 ± 78	2.9	6	9	–	–	–	–	–	–	–	–	–	–
Cc1cc(SC(Cc2ccc(-c3ccc(F)cc3)cc2)c2sc(-c3ccc(C(F)(F)F)cc3)nc2C)ccc1OCC(=O)O (stereo not drawn) [Compound 9]	–	–	–	–	–	–	–	–	–	–	3.0	2.8	1.9	1.9	1.5	1.5	redder than the control group	9.7	8.41	ia
Cc1cc(SC(Cc2ccc(-c3ccccc3)cc2)c2sc(-c3ccc(C(F)(F)F)cc3)nc2C)ccc1OCC(=O)O (stereo not drawn) [Compound 5]	–	–	–	–	–	–	–	–	–	–	3.9	3.6	2.5	2.4	2.2	2.1	redder than the control group	8.2	8.48	ia
